As usually defined, the Ki is the dissociation constant of the complex between target and ligand, obtained from inhibition or displacement. What is called Km is the concentration of substrate that gives half-maximal velocity. As usually defined, the Vmax is the top rate of the reaction or transport when substrate is in excess. A word on the kcat: it is the maximal rate divided by the concentration of active sites.

Results on seven compounds are retold here after paper PMC11525138 (The Journal of Biological Chemistry, 2024).

Molecules are shown by their SMILES. Where two headings read alike, the source gives them in different places.

The target of experiment [1] is T1, NanIGH33 (Clostridium perfringens, UniProt Q59310). The class given is biochemical. The conditions noted are these: pH 4.5.
Experiment [2] addresses T2, NanJGH33 (Clostridium perfringens, UniProt A0A0H2YT71). The class given is biochemical. The conditions noted are these: pH 4.5.
Experiment [3] addresses T3, NanHGH33 (Clostridium perfringens, UniProt P10481). The class given is biochemical. The conditions noted are these: pH 4.5.
Experiment [4] addresses T1, NanIGH33. As to the kind of experiment: biochemical. The class given is biochemical.
For experiment [5], the target named is T2, NanJGH33. Description: biochemical. The class given is biochemical.
Experiment [6] addresses T1, NanIGH33. The class given is biochemical.
Experiment [7] has as its target T2, NanJGH33. The class given is biochemical.
The next experiment relates to C. perfringens CP1. The class given is cell-based, Clostridium perfringens. The conditions noted are these: for Doubling Time: without DANA 0.762; for k (rate constant) of exponential growth: without DANA 0.909 ± 0.098.
For experiment [8], the target named is T3, NanHGH33. As to the kind of experiment: biochemical. The class given is biochemical.
Experiment [9] has as its target T3, NanHGH33. The class given is biochemical.

T2 sequence (A0A0H2YT71 373-820 limits assumed): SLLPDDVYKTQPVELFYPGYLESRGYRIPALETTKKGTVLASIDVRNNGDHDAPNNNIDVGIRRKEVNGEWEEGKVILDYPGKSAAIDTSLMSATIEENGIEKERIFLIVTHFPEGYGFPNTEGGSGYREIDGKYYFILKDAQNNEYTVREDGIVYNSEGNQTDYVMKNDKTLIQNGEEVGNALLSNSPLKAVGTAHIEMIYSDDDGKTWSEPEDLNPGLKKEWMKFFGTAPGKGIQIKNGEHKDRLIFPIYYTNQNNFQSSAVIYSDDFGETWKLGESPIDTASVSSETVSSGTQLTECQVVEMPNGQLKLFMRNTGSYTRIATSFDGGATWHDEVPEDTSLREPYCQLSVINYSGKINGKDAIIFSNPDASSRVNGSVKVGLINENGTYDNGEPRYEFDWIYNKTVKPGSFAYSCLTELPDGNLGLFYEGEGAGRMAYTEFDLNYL
T3 sequence (P10481 whole entry, looked up): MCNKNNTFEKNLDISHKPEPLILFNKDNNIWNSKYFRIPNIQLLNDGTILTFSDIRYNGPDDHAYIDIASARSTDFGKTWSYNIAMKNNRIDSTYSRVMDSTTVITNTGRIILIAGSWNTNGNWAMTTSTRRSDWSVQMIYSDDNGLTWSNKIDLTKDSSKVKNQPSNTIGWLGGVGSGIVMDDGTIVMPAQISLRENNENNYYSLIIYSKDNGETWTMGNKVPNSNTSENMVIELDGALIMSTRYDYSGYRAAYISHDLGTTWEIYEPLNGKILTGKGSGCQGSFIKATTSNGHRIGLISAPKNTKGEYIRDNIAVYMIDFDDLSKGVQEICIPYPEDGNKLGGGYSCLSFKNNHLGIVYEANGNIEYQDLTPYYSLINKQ
T1 sequence (Q59310 243-694 limits assumed): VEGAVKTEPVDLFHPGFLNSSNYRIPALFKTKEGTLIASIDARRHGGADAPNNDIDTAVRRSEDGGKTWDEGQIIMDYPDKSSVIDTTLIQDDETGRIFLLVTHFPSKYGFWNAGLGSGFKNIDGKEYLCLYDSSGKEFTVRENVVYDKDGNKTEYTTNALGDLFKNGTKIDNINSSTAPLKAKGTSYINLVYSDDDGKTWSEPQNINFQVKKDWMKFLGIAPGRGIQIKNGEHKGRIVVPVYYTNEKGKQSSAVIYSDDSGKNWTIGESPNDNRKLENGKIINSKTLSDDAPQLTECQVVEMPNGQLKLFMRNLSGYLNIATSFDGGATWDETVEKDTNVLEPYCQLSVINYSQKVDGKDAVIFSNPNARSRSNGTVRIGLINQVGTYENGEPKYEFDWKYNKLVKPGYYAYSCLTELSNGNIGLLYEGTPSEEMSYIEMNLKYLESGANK

`CC(=O)N[C@H]1[C@H]([C@H](O)[C@H](O)CO)O[C@@](O[C@H]2[C@@H](O)[C@@H](CO)O[C@@H](O[C@H]3[C@H](O)[C@@H](O)C(O)O[C@@H]3CO)[C@@H]2O)(C(=O)O)C[C@@H]1O` (stereo partly drawn) [3′-SL, 3′-sialyllactose]: the “hydrolysis of substrate in competition assay (in words)” value on NanIGH33 [1] is “roughly equal rates”; at NanJGH33 [2], “processed both substrates very rapidly”; on NanHGH33 [3] it was “hydrolyzed”.

In the case of `CC(=O)N[C@H]1[C@H]([C@H](O)[C@H](O)CO)O[C@@](OC[C@H]2O[C@@H](O[C@H]3[C@H](O)[C@@H](O)[C@H](O)O[C@@H]3CO)[C@H](O)[C@@H](O)[C@H]2O)(C(=O)O)C[C@@H]1O` [6′-SL, 6′-sialyllactose], the “hydrolysis of substrate in competition assay (in words)” value at NanIGH33 [1] is “roughly equal rates”; on NanJGH33 [2], “processed both substrates very rapidly”; on NanHGH33 [3], “did not show any significant capacity to hydrolyze”.

On to `CC(=O)N[C@H]1[C@H]([C@H](O)[C@H](O)CO)OC(C(=O)O)=C[C@@H]1O` [DANA, N-acetyl-2,3-dehydro-2-deoxyneuraminic acid], for which the Ki at NanIGH33 [4] (pH 6.5, read-out: Ki) turned out to be 3.1 ± 0.5 µM; on NanJGH33 [5] (pH 6.8, read-out: Ki) it was 3.2 ± 0.3 µM; at NanHGH33 [8] (pH 7, read-out: Ki), 33.9 ± 4.4 µM. The “lactose released from 3′- and 6′-SL in the presence of inhibitor” value at NanIGH33 [6], on NanJGH33 [7] and at NanHGH33 [9] was “reduced the amount of lactose released” throughout. Besides, the “effect on growth of C. perfringens in the presence of 3′SL” value in the experiment on C. perfringens CP1 (0.5% 3′SL as substrate, 1 mM DANA required for a clear effect) was “reduce the growth”. The “Doubling Time” value with C. perfringens CP1 (3'SL + 0.01 mM DANA) is given as 0.571 h; in the experiment with C. perfringens CP1 (3'SL + 0.1 mM DANA) it was 0.576 h; in the experiment on C. perfringens CP1 (3'SL + 1 mM DANA) it was 1.725 h. Also, the “k (rate constant) of exponential growth” value in the experiment on C. perfringens CP1 (3'SL + 0.01 mM DANA) came out at 1.214 ± 0.085; in the experiment on C. perfringens CP1 (3'SL + 0.1 mM DANA) it was 1.202 ± 0.066; in the experiment on C. perfringens CP1 (3'SL + 1 mM DANA) it was 0.402 ± 0.019. The “effect on C. perfringens consumption of 3′-SL” value in the experiment on C. perfringens CP1 (24 h culture supernatants, HPAEC-PAD quantification) is recorded as “protect against C. perfringens consumption of 3′-SL”. Besides, the “reduction of growth of C. perfringens with glucose as the sole carbohydrate source” value in the experiment with C. perfringens CP1 (glucose as sole carbohydrate source, data not shown) is listed as “not”.

Regarding `CCOC(=O)C1=C[C@@H](OC(CC)CC)[C@H](NC(C)=O)[C@@H](N)C1` [Oseltamivir, (3R,4R,5S)-4-acetamido-5-amino-3-(1-ethylpropoxy)-1-cyclohexene-1-carboxylic acid ethyl ester], at NanIGH33 [4], the Ki was more than 100 µM and the “inhibition of NanIGH33 (in words)” value is recorded as “did not display any detectable inhibition”. Besides, at NanJGH33 [5], the Ki was more than 100 µM and the “inhibition of NanJGH33 (in words)” value is recorded as “did not display any detectable inhibition”. Besides, at NanHGH33 [8], the Ki is more than 100 µM and the “inhibition of NanHGH33 (in words)” value was “did not display any detectable inhibition”.

`CC(=O)N[C@H]1NC[C@H](C(=O)O)[C@H](O)[C@@H]1O` [Siastatin B, (3S, 4S, 5R, 6R)-6-(acetylamino)-4,5-dihydroxy-3-piperidinecarboxylic acid]: the Ki on NanIGH33 [4] came out at 10.7 ± 2 µM; at NanJGH33 [5], 13.3 ± 1.6 µM; at NanHGH33 [8], 125 ± 16.2 µM.

For the compound `CC(=O)N[C@H]1[C@H]([C@H](O)[C@H](O)CO)O[C@@](Oc2c[nH]c3ccc(Br)c(Cl)c23)(C(=O)O)C[C@@H]1O` [X-Neu5Ac, 5-bromo-4-chloro-3-indolyl α-D-N-acetylneuraminic acid], at NanIGH33 [4] (pH 6.5), the Km came to 123 ± 25.4 µM, the Vmax was found to be 0.09 ± 0.01 µM/s and the kcat was 9.2 ± 0.6 s⁻¹. Besides, on NanJGH33 [5], the “kcat/Km of NanJGH33 relative to NanHGH33” value is listed as approximately 3.6 fold and the “kcat/Km of NanJGH33 relative to NanIGH33” value is recorded as “approximately 2 fold”. Further, at NanJGH33 [5] (pH 6.8), the Km was 87 ± 10.7 µM and the kcat was determined as 15.3 ± 0.6 s⁻¹. For the same compound, on NanHGH33 [8] (pH 7), the Km was determined as 280 ± 62.7 µM and the kcat was 13.3 ± 1.2 s⁻¹.

For `CC(=O)N[C@H]1[C@H]([C@H](O)[C@H](O)CO)OC(C(=O)O)=C[C@@H]1N=C(N)N` [Zanamivir, 4-guanidino-2,4-dideoxy-2,3-dehydro-N-acetylneuraminic acid], on NanIGH33 [4], the Ki was more than 100 µM and the “inhibition of NanIGH33 (in words)” value is “did not display any detectable inhibition”. For the same compound, at NanJGH33 [5], the Ki is more than 100 µM and the “inhibition of NanJGH33 (in words)” value is recorded as “did not display any detectable inhibition”. Moreover, at NanHGH33 [8], the Ki is more than 100 µM and the “inhibition of NanHGH33 (in words)” value is given as “did not display any detectable inhibition”.
